Source: paper PMC11375437, “Selective labelling of GBA2 in cells with fluorescent β-D-arabinofuranosyl cyclitol aziridines” (Chemical Science, 2024)

Target: T1, GBA2 (Homo sapiens, UniProt Q9HCG7)
T1 sequence (Q9HCG7 1-927): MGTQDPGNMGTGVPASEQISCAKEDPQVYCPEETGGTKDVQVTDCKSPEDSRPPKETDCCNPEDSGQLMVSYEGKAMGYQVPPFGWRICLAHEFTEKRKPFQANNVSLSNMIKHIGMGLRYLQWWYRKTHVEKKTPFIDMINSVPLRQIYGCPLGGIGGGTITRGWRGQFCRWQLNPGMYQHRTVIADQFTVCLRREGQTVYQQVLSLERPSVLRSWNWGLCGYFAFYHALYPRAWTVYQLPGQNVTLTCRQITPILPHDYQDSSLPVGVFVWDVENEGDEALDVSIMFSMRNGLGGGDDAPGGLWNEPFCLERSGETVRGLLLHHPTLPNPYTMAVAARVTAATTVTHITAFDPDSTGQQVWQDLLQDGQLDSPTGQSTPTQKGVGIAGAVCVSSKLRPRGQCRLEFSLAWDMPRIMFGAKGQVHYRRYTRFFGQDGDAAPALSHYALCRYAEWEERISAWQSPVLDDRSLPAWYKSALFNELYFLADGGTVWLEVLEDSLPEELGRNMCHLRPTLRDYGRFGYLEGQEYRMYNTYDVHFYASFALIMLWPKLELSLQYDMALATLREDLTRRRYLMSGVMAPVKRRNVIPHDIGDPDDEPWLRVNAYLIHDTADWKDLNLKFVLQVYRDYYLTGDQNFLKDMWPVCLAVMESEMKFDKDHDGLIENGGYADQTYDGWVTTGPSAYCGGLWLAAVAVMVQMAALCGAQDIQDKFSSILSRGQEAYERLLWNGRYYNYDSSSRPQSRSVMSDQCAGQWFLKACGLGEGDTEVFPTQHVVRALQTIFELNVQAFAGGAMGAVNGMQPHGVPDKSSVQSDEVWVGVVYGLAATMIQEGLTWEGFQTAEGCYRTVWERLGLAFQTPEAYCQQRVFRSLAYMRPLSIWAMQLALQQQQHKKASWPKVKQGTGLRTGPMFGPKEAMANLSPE
Assay: Confocal microscopy of ABP 4 staining after inhibitor pre-treatment in GBA2 overexpressing cells
Format: cell-based
Set-up: expressed in transfected cells; host or cells: HEK293T GBA1/GBA2 KO (CRISPR/Cas9), GBA2 overexpressed
Settings: 16 h pre-treatment (21 100 nM, 22 500 nM), then ABP 4 50 nM 2 h; GBA2 OE HEK293T cells
Procedure: To confirm the specific staining of GBA2, cells overexpressing GBA2 were pre-treated with either the specific GBA1 inhibitor 21 [32] or the GBA1/GBA2 inhibitor 22.[36]
Figure S11. Confocal fluorescence microscopy of A) HEK293T wild-type (WT), GBA2 overexpression (OE) or GBA1/2 knock out (KO) + GBA2 overexpression (OE) cells. Cells were pre-treated with either DMSO, GBA1/GBA2 inhibitor 22 or GBA1 selective inhibitor 21, and afterwards incubated with β-D-Araf aziridine BODIPY-red ABP 4 (50 nM) for 2 h. Subsequently, cells were fixed and stained for GBA1 (Green) with an anti-GBA1 antibody. B) RAW264.7 cells pre-treated with either DMSO or GBA1/GBA2 inhibitor 22 and incubated β-D-Araf aziridine ABP 4 for (50 nM) for 2 h. […]
Figure S12. […] Competitive ABPP allow for the determination of apparent IC50 values by quantification of the fluorescence intensity of ABP 7 as described in experimental section. […]
2.12 Reactivity of β-D-Araf aziridines towards GBA2 orthologue in other species β-D-Araf aziridine ABP 3-5 or ABP 7 was incubated with homogenates of zebrafish (Danio rerio) larvae or mice brain for 1 h at 37 °C. […] The zebrafish homogenates were passed through a desalting column (in the same way as described for the irreversibility evaluation above) to remove interference from biological pigments when scanning at λEX 473 nm and λEM ≥ 510 nm for BODIPY green fluorescence. […]

SMILES: CCCCCN1[C@@H]2[C@H](CO)[C@@H](O)[C@H](O)[C@@H](O)[C@@H]21 (stereo partly shown) [Inhibitor 22]
- Effect of pre-treatment on ABP 4 staining of GBA2: completely abrogated
